Measured values as given in patent publication US10844018B2, “Pyridoxine derivative for treatment of epilepsy” (AO “TATKHIMFARMPREPARATY”, priority 2017, dated 2020).
Entries after “also recorded” stand apart in the source; their conditions may differ. Where two headings read alike, the source gives them in different places.

Columns and labels:
rats [1] = conditions: oral administration; cited from earlier work
mice [2] = conditions: intravenous injection; cited from earlier work
rats [3] = conditions: intravenous injection; cited from earlier work
mice [4] = conditions: cited from earlier work
mice [5] = conditions: intraperitoneal administration; cited from earlier work
[6] = test system: corazol rat epilepsy model (convulsions caused by corazol); assay: Corazol model of epilepsy: development of seizures; type: in vivo; conditions: rats
Description: Experiments were carried out on male Wistar rats with a body weight of 180-250 g.
Corazol at a dose of 80 mg/kg is administered subcutaneously in the cervical area of the back.
The intensity of the development of a convulsive seizure was studied on a 6-point scale: • 0—lack of convulsive activity; • 1—hyperkinesia; • 2—trembling, twitching, excessive grooming, stereotypical movements; • 3—clonic convulsions of the front legs with lifting on the hind legs; • 4—pronounced tonic-clonic convulsions, the fall of the animal to the side, the presence of a phase of tonic extensia; • 5—repeated tonic-clonic convulsions, loss of posture; • 6—complete tonic attack with apnea, death of the animal.
To study the effect of the claimed compound 1 on the development of convulsions caused by corazol, compound 1 is dissolved in physiological saline and administered as follows: • at doses of 25 mg/kg, 100 mg/kg intraperitoneally (ip) 30 minutes before the induction of convulsions with corazol; • at doses of 100 mg/kg, 200 mg/kg, 250 mg/kg intragastrically 1 hour before the induction of convulsions with corazol.
The development of convulsive disorder is assessed by the following indicators: • time before the onset of seizures (min); • duration of seizures (sec.); • intensity of seizures on a 6-point scale; • number of animals with repeated convulsions; • number of dead animals in the group.
For statistical processing of experimental data, statistical programs Origin 8.5 and IBM SPSS Statistics are used.
The significance of differences between populations is evaluated by the Mann-Whitney U-test.

[7] = Acute toxicity in mice with intraperitoneal administration (compound 1); conditions: both sexes, CD-1 (ICR), mouse, in vivo, ip, printed 'in rats', study in CD-1 mice
Description: The study was performed on mice of the CD-1 (ICR) line (6-8 weeks, weight not less than 18 g) of both sexes. A single intraperitoneal injection of compound 1 was used at doses of 1000 mg/kg and 2000 mg/kg in a volume of 1 ml per 40 g of mouse body mass using an insulin syringe. The volume of administration was calculated individually for each animal, based on the body mass recorded immediately before the introduction of the substance.
To prepare a dose of 2000 mg/kg for administration to mice, a portion of 800 mg of compound 1 in a polystyrene boat on a Vibra scale (Shinko Denshi, Japan) was weighed, transferred to a volumetric flask of accuracy class A per 10 ml of volume, dissolved in physiological saline and adjusted to the mark. The solution was filtered with 0.22 μm syringe nozzles (Jet Biofil). […]
(§1) Animals were clinically examined individually after administration for 30 minutes, then at least once per hour for 4 hours, then daily once a day for 14 days. Body mass was recorded immediately before the administration of the preparation to calculate the volume of administration, then once every two days.

[8] = test system: penicillin rat epilepsy model (high-amplitude electric discharges, HAED); assay: Penicillin model of epilepsy: effect on the electrical activity of the brain; type: in vivo
Description: Experiments were carried out on male Wistar rats with a body weight of 180-250 g. Under isoflurane anesthesia (1.5%), surgical preparation for the experiment is performed. Urethane ([…]) is used for anesthesia during the experiment. Next, the animal is fixed in a stereotactic installation. 2×2 mm holes are drilled in the skulls of animals over symmetrical areas of the sensorimotor cortex of the brain and a 16-channel silicon-based probe (Neuronexus) is installed with a step of 100 μm between the recording electrodes to divert electrical activity from these areas. A silver chloride electrode, which serves as a combined ground electrode and a reference electrode, is introduced into the cerebellum or the visual cortex to a depth of 2-3 mm. To create a focus of epileptic activity in parallel to the somatosensory zones, 2×2 mm holes are drilled in the area of the visual cortex, into which 10 μl of a solution of sodium salt of benzylpenicillin are applied at a concentration of 40,000 IU/ml. […] The amplitude-frequency characteristics of epileptiform activity are evaluated. […] For statistical processing of experimental data, statistical programs Origin 8.5 and IBM SPSS Statistics are used. The significance of differences between populations is evaluated by the Mann-Whitney U-test. […] Their presence, frequency and amplitude are characteristic indicators of brain epileptic activity.

[9] = Acute toxicity in mice with oral administration (compound 1); conditions: female, CD-1 (ICR), mouse, in vivo, 5000 mg/kg, printed 'in rats', study in CD-1 mice
Description: The study was performed on mice of the CD-1 (ICR) line (6-8 weeks, weight not less than 18 g, females). Two-fold intragastric (oral) administration of compound 1 in a volume of not more than 0.5 ml/30 g of body weight of the mouse using a gastric tube was used.
The introduction was carried out to animals deprived of food (for a period of not less than 8 hours) with free access to water. The volume of administration was calculated individually for each animal, based on the body mass recorded immediately before the introduction of the substance. Access to water and feed was renewed one hour after administration.
To prepare a dose of 5000 mg/kg for administration to mice, a portion of 1.5 g of compound 1 in a polystyrene boat on a Vibra scale (Shinko Denshi, Japan) was weighed, transferred to a volumetric flask of accuracy class A per 10 ml of volume, dissolved in distilled water and adjusted to the mark. Due to the insufficient solubility of compound 1, another 10 ml of distilled water is added to the resulting volume of the solution.
as §1

NCC1(CC(=O)O)CCCCC1 [gabapentinum]
LD50 (rats [1]): > 5000 mg/kg
LD50 (mice [2]): 1000 to 2000 mg/kg
LD50 (rats [3]): > 300 mg/kg
LD50 (mice [4]; mice, oral administration): > 5000 mg/kg

CCCC(CCC)C(=O)[O-].[Na+] [sodium valproate]
LD50 (mice [5]): 470 mg/kg
LD50 (mice [4]; mice, oral administration): 977 mg/kg

CC1(C)O[C@@H]2[C@@H](CO[C@@]3(COS(N)(=O)=O)OC(C)(C)O[C@@H]23)O1 [topiramate]
LD50 (rats [1]): 3570 mg/kg

CC[C@@H](C(N)=O)N1CCCC1=O [levetiracetam]
LD50 (mice [4]; mice, oral administration): > 5000 mg/kg

CCC1(c2ccccc2)C(=O)NC(=O)NC1=O [phenobarbital]
LD50 (rats [1]): 163 mg/kg

O=C1N=C([O-])NC1(c1ccccc1)c1ccccc1.[Na+] [sodium phenytoin]
LD50 (mice [4]; mice, oral administration): 165 mg/kg

NS(=O)(=O)Cc1noc2ccccc12 [zonisamide]
LD50 (mice [5]): 699 mg/kg
LD50 (mice [4]; mice, oral administration): 1829 mg/kg

NC(=O)N1c2ccccc2C=Cc2ccccc21 [carbamazepine]
LD50 (mice [5]): 114 mg/kg
LD50 (mice [4]; mice, oral administration): 529 mg/kg

CCC1(C)CC(=O)NC1=O (stereo not drawn) [ethosuximide]
LD50 (mice [4]; mice, oral administration): 1530 mg/kg

Nc1nnc(-c2cccc(Cl)c2Cl)c(N)n1 [lamotrigine]
LD50 (mice [4]; mouse, in vivo, po): 269 mg/kg

Cc1nc(CS(=O)(=O)O)c(CO)c(CO)c1O [compound 1, (5-hydroxy-3,4-bis (hydroxymethyl)-6-methylpyridin-2-yl) methanesulfonic acid]
prevention / reduction of development of a seizure ([6]; 250 mg/kg oral administration, corazol model): best results in reducing the development of a seizure; also recorded: complete prevention of seizures in some cases
intensity and duration of seizures ([6]; 25 and 100 mg/kg intraperitoneally and 100 and 200 mg/kg orally, corazol model): decrease in the intensity and duration of seizures
effect on development of a seizure relative to 250 mg/kg oral ([6]; 100 and 200 mg/kg oral, corazol model): slightly less pronounced
deaths ([6]; all dosages, corazol model): completely prevents deaths
likelihood of recurrence of seizures ([6]; all dosages, corazol model): greatly reduces the likelihood of recurrence of seizures
duration and intensity of seizures ([6]; corazol 80 mg/kg sc, oral and intravenous (so in the source) ways of administration, all doses): dose-dependent decrease in the duration and intensity of seizures
LD50 at 14 days [7]: > 2000 mg/kg
antiepileptic effect compared with sodium valproate ([8]; compound 1 25-100 mg/kg against sodium valproate 600 mg/kg, ip, penicillin model): 6-24 times
suppression of HAED (epileptic electrical activity of the brain) ([8]; compound 1 at 25, 50, 100 mg/kg ip, given 30 min after penicillin, 60 minutes after administration, rats): completely suppressing HAED; also recorded: completely suppresses the epileptic electrical activity of the brain
amplitude and frequency of HAED ([8]; compound 1 at 25, 50, 100 mg/kg ip, rats, penicillin model): decrease in the amplitude and frequency of HAED
LD50 at 14 days [9]: > 5000 mg/kg
